Results on 4 compounds are retold here after patent US9980943B2, “Methods of treating muscular dystrophy” (BOARD OF REGENTS OF THE NEVADA SYSTEM OF HIGHER EDUCATION, …, priority 2013, dated 2018).

Common to all, as to format: cell-based, mouse
For test [1], the system named is α7 integrin (LacZ reporter in α7βgal+/− myoblasts). The experiment in a line: Myoblast α7+/LacZ integrin FDG assay (Burkin assay in myoblasts, 96-well). To be noted: 96-well; for Burkin Assay in Myoblasts, value relative to DMSO: SU9516 analogs, N=3-6; for Burkin Assay in Myoblasts, signal relative to DMSO: α7+/LacZ myoblasts.
Test [2] relates to α7 integrin (LacZ reporter in α7+/LacZ myotubes). The experiment in a line: Myotube α7 integrin FDG assay (Burkin assay in myotubes, 96-well). To be noted: for Burkin Assay in Myotubes, value relative to DMSO: SU9516 analogs, 96-well, N=3-6.
Test [3] has as its system β-galactosidase in CMV-LacZ C2C12 myoblasts. The experiment in a line: CMV-LacZ secondary screen in C2C12 myoblasts (β-Gal stabilizing assay). The note with it: for CMV-LACZ in Myoblasts, value relative to DMSO: SU9516 analogs, C2C12 CMV-LacZ, N=2; for CMV-LACZ in Myoblasts (β-galactosidase activity relative to DMSO): CMV-LacZ C2C12 myoblasts. Summed up:
(§1)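 A secondary screen identifies compounds that stabilize β-gal independently of the native promoter, using CMV-LacZ C2C12 cells. Curves span 0.5–40 μM at six levels, in duplicate.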

In test [4] the test system is β-galactosidase in CMV-LacZ C2C12 myotubes. The test is described as follows: CMV-LacZ secondary screen in C2C12 myotubes (β-Gal stabilizing assay). To be noted: for CMV-LACZ in Myotubes, value relative to DMSO: SU9516 analogs, C2C12 CMV-LacZ, N=2; for CMV-LACZ in Myotubes, signal relative to DMSO: C2C12 CMV-LacZ myotubes, fold relative to DMSO. The procedure, abridged: as §1

Turning to `CCN(CC)CCNC(=O)c1c(C)[nH]c(/C=C2\C(=O)Nc3ccc(F)cc32)c1C` [NCGC00164631-03], the “Burkin Assay in Myoblasts, value relative to DMSO” value in test [1] (0.5 uM) is 0.8373; in test [1] (1 uM) it was 1.032; in test [1] (5 uM) it was 0.3224; in test [1] (10 uM), 0.01373; in test [1] (20 uM), 0.01408; in test [1] (40 uM) it was 0.01283. Moreover, the “Burkin Assay in Myotubes, value relative to DMSO” value in test [2] (0.5 uM) turned out to be 0.9512; in test [2] (1 uM), 0.9445; in test [2] (5 uM) it was 0.5505; in test [2] (10 uM), 0.1881; in test [2] (20 uM), 0.09031; in test [2] (40 uM) it was 0.07758. Also, the “CMV-LACZ in Myoblasts, value relative to DMSO” value in test [3] (0.5 uM) is given as 0.8658; in test [3] (5 uM) it was 0.7817; in test [3] (10 uM), 0.2763; in test [3] (20 uM) it was 0.1830; in test [3] (40 uM) it was 0.1767. The “CMV-LACZ in Myotubes, value relative to DMSO” value in test [4] (0.5 uM) is recorded as 1.2682; in test [4] (1 uM), 1.2736; in test [4] (5 uM) it was 0.8420; in test [4] (10 uM), 0.3964; in test [4] (20 uM), 0.6690; in test [4] (40 uM), 0.7680.
On to `Br.COc1ccc(C(=O)CN2CCCCC2)cc1` [MLS001004864-01], for which the “Burkin Assay in Myoblasts, signal relative to DMSO” value in test [1] (0.5 uM) came out at 1.1396; in test [1] (1 uM), 1.193; in test [1] (5 uM) it was 1.109; in test [1] (10 uM), 1.023; in test [1] (20 uM), 1.105; in test [1] (40 uM), 0.8883. The “Burkin Assay in Myotubes, α7 integrin LacZ reporter signal relative to DMSO” value in test [2] (0.5 uM) was found to be 0.949; in test [2] (1 uM) it was 1.025; in test [2] (5 uM), 0.9784; in test [2] (10 uM), 0.9618; in test [2] (20 uM), 0.6075; in test [2] (40 uM) it was 0.376. Further, the “CMV-LACZ in Myoblasts (β-galactosidase activity relative to DMSO)” value in test [3] (0.5 uM) is on record as 1.2650; in test [3] (1 uM), 0.9288; in test [3] (5 uM) it was 1.2276; in test [3] (10 uM), 1.0417; in test [3] (20 uM) it was 1.2930; in test [3] (40 uM), 0.9933. Further, the “CMV-LACZ in Myotubes, signal relative to DMSO” value is on record as 0.9657 in test [4] (0.5 uM); 0.9610 in test [4] (1 uM); 1.0697 in test [4] (5 uM); 0.9501 in test [4] (10 uM); 0.9653 in test [4] (20 uM); 0.8884 in test [4] (40 uM).
As for `COc1ccc(C(=O)Nc2ccc(Cl)cn2)cc1Cl` [MLS000089748-01], the “Burkin Assay in Myoblasts, signal relative to DMSO” value in test [1] (0.5 uM) was determined as 1.145; in test [1] (1 uM), 1.168; in test [1] (5 uM), 0.8656; in test [1] (10 uM), 0.7355; in test [1] (20 uM), 0.2402; in test [1] (40 uM) it was 0.1766. For the same compound, the “Burkin Assay in Myotubes, α7 integrin LacZ reporter signal relative to DMSO” value in test [2] (0.5 uM) was 1.043; in test [2] (1 uM) it was 0.9139; in test [2] (5 uM) it was 0.8675; in test [2] (10 uM) it was 0.8026; in test [2] (20 uM), 0.7715; in test [2] (40 uM) it was 0.7415. In addition, the “CMV-LACZ in Myoblasts (β-galactosidase activity relative to DMSO)” value in test [3] (0.5 uM) is on record as 1.2129; in test [3] (1 uM), 0.8592; in test [3] (5 uM) it was 1.0665; in test [3] (10 uM), 0.9905; in test [3] (20 uM), 0.3140; in test [3] (40 uM) it was 0.4437. Moreover, the “CMV-LACZ in Myotubes, signal relative to DMSO” value in test [4] (0.5 uM) came to 0.9527; in test [4] (1 uM), 0.9809; in test [4] (5 uM) it was 1.1104; in test [4] (10 uM), 0.9813; in test [4] (20 uM) it was 1.3800; in test [4] (40 uM) it was 1.2820.
Regarding `CCC(CC)C(=O)Nc1c(C(=O)N2CCN(c3ccccc3)CC2)oc2ccccc12` [MLS001116079-01], the “Burkin Assay in Myoblasts, signal relative to DMSO” value in test [1] (0.5 uM) was determined as 1.03; in test [1] (1 uM), 1.087; in test [1] (5 uM), 1.025; in test [1] (10 uM) it was 0.9749; in test [1] (20 uM) it was 1.244; in test [1] (40 uM), 1.34. Further, the “Burkin Assay in Myotubes, α7 integrin LacZ reporter signal relative to DMSO” value in test [2] (0.5 uM) is 0.9524; in test [2] (1 uM), 0.9502; in test [2] (5 uM), 0.9559; in test [2] (10 uM), 0.9012; in test [2] (20 uM), 0.9027; in test [2] (40 uM), 0.9686. Also, the “CMV-LACZ in Myoblasts (β-galactosidase activity relative to DMSO)” value in test [3] (0.5 uM) is 1.0950; in test [3] (1 uM) it was 1.0492; in test [3] (5 uM) it was 0.9306; in test [3] (10 uM) it was 1.0228; in test [3] (20 uM), 1.0448; in test [3] (40 uM) it was 0.9078. Besides, the “CMV-LACZ in Myotubes, signal relative to DMSO” value in test [4] (0.5 uM) is 1.3543; in test [4] (1 uM) it was 0.8152; in test [4] (5 uM), 1.0227; in test [4] (10 uM) it was 1.1374; in test [4] (20 uM), 0.9063; in test [4] (40 uM), 1.0811.
